Assay results from ChEMBL document CHEMBL2034885, “Diverse heterocyclic scaffolds as allosteric inhibitors of AKT” (J Med Chem, 2012).
≈ marks a conversion by molar mass, not a printed value. Calls of active or inactive are those of the source. No cut-off for these calls is given here.

How the values were obtained:
[1] = Lipophilicity, log D of the compound; details: octanol/water
[2] = Inhibition of AKT phosphorylation at Ser473 in human MDA-MB-468 cells; type: cell-based
[3] = Aqueous solubility at pH 7.4
[4] = Inhibition of AKT phosphorylation at Thr308 in human BT474 cells; type: cell-based; details: BT-474
[5] = Fraction unbound in Han Wistar rat plasma; type: ADME, cell-free
[6] = molecular target: RAC-alpha serine/threonine-protein kinase (Homo sapiens, UniProt P31749); assay: Inhibition of AKT1
[7] = Oral bioavailability in Han Wistar rat; type: ADME, organism-based; details: in vivo
[8] = test system: Hepatocyte; assay: Intrinsic clearance in human hepatocytes assessed per 10^-6 cells
[9] = test system: Hepatocyte; assay: Intrinsic clearance in Han Wistar rat hepatocytes assessed per 10^-6 cells
[10] = Blood clearance in iv dosed Han Wistar rat
[11] = Volume of distribution at steady state in Han Wistar rat; type: ADME, organism-based; details: in vivo, read-out: Vdss
[12] = test system: Mus musculus; assay: Inhibition of AKT-mediated GSK3beta phosphorylation in human BT474c cells xenografted in nude mouse at 200 mg/kg, po after 24 hrs; type: functional, organism-based; design: dose 200 mg/kg
[13] = test system: Mus musculus; assay: Inhibition of AKT-mediated GSK3beta phosphorylation in human BT474c cells xenografted in nude mouse at 100 mg/kg, po after 4 hrs; type: functional, organism-based; design: dose 100 mg/kg
[14] = test system: BT474c; assay: Inhibition of AKT phosphorylation at Ser473 in human BT474c cells at 0.01 uM to 10 uM after 24 hrs; type: cell-based
[15] = test system: Mus musculus; assay: Inhibition of AKT phosphorylation at S473 in human BT474c cells xenografted in nude mouse at 100 mg/kg, po after 24 hrs; type: functional, organism-based; design: dose 100 mg/kg
[16] = test system: BT474c; assay: Inhibition of AKT phosphorylation at Thr308 in human BT474c cells at 0.01 uM to 10 uM after 24 hrs; type: cell-based
[17] = test system: Mus musculus; assay: Inhibition of AKT-mediated GSK3beta phosphorylation in human BT474c cells xenografted in nude mouse at 100 mg/kg, po after 24 hrs; type: functional, organism-based; design: dose 100 mg/kg
[18] = test system: BT474c; assay: Antitumor activity against human BT474c cells xenografted in po dosed nude mouse assessed as tumor growth inhibition administered qd for 21 days; type: functional, organism-based
[19] = test system: BT474c; assay: Inhibition of AKT-mediated ribosomal S6 protein phosphorylation at S235/236 in human BT474c cells at 0.01 uM to 10 uM after 24 hrs; type: cell-based
[20] = test system: Mus musculus; assay: Inhibition of AKT phosphorylation at S473 in human BT474c cells xenografted in nude mouse at 100 mg/kg, po after 4 hrs; type: functional, organism-based; design: dose 100 mg/kg
[21] = test system: Mus musculus; assay: Inhibition of AKT phosphorylation at S473 in human BT474c cells xenografted in nude mouse at 200 mg/kg, po after 4 hrs; type: functional, organism-based; design: dose 200 mg/kg
[22] = test system: BT474c; assay: Antitumor activity against human BT474c cells xenografted in nude mouse assessed as tumor growth inhibition at 200 mg/kg, po qd for 21 days; type: functional, organism-based; design: dose 200 mg/kg
[23] = test system: BT474c; assay: Inhibition of AKT-mediated PRAS40 phosphorylation at T246 in human BT474c cells at 0.01 uM to 10 uM after 24 hrs; type: cell-based
[24] = test system: Mus musculus; assay: Inhibition of AKT phosphorylation at S473 in human BT474c cells xenografted in nude mouse at 200 mg/kg, po after 24 hrs; type: functional, organism-based; design: dose 200 mg/kg
[25] = test system: Mus musculus; assay: Inhibition of AKT-mediated GSK3beta phosphorylation in human BT474c cells xenografted in nude mouse at 200 mg/kg, po after 4 hrs; type: functional, organism-based; design: dose 200 mg/kg

Sequence of RAC-alpha serine/threonine-protein kinase (P31749 whole entry): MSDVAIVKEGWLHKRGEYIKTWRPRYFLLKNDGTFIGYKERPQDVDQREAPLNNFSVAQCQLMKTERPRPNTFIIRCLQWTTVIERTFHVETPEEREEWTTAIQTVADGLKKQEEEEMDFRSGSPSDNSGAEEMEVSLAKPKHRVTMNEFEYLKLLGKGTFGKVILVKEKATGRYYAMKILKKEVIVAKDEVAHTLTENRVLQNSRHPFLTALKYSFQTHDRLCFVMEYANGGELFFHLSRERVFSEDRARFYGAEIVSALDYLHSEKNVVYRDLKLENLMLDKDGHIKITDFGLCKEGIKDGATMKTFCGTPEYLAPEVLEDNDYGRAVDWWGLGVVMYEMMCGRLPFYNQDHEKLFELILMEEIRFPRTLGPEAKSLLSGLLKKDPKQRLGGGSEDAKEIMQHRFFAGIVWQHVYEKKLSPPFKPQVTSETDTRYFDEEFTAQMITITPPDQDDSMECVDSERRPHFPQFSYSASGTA

SMILES	logD [1]	IC50 [2] [nM]	solubility [3] [µM]	IC50 [4] [nM]	IC50 [6] [nM]	also measured
NC1(c2ccc(-c3c(-c4ccccc4)ccn4ccnc34)cc2)CCC1	–	388	–	324	1810	–
NC1(c2ccc(-n3c(-c4ccccc4)nc4ccccc4c3=O)cc2)CCC1	1.6	7730	1400 (≈ 514 µg/mL)	5900	41700	–
Cn1cnc2c(-c3ccc(C4(N)CCC4)cc3)c(-c3ccccc3)ccc21	–	359	–	343	2800	–
NC1(c2ccc(-c3nn4cccc4cc3-c3ccccc3)cc2)CCC1	3.3	1230	27 (≈ 9.16 µg/mL)	2430	926	–
CCn1cnc2cnc(-c3ccc(C4(N)CCC4)cc3)c(-c3ccccc3)c21	2	1540	–	1200	8980	–
NC1(c2ccc(-c3c(-c4ccccc4)ccc4ccnn34)cc2)CCC1	–	824	–	1190	2720	–
NC1(c2ccc(-c3ncc4nccn4c3-c3ccccc3)cc2)CCC1	1.3	365	2500 (≈ 851 µg/mL)	386	1260	bioavailability [7]: 30%; CLH [8]: 3 µL/min; CLH [9]: 16 µL/min; clearance ([10]; whole blood): 62 mL/min/kg; fraction unbound [5]: 0.371; Vd [11]: 10.3 L/kg
NC1(c2ccc(-c3nc4ccccc4c(=O)n3-c3ccccc3)cc2)CCC1	1.5	2080	2300 (≈ 845 µg/mL)	2620	7020	–
NC1(c2ccc(-c3c(-c4ccccc4)ncc4nccn34)cc2)CCC1	1.7	2480	2500 (≈ 851 µg/mL)	2180	5400	–
NC1(c2ccc(-c3c(-c4ccccc4)ccn4ncnc34)cc2)CCC1	1.7	661	1000 (≈ 340 µg/mL)	479	2670	–
NC1(c2ccc(-c3ncc4cccn4c3-c3ccccc3)cc2)CCC1	2.5	483	1500 (≈ 509 µg/mL)	604	787	–
NC1(c2ccc(-c3nn4ccc(=O)nc4cc3-c3ccccc3)cc2)CCC1	0.2	2170	1900 (≈ 700 µg/mL)	1620	8660	–

Molecules with a lower IC50 [2], results first:

logD [1]	IC50 [2] [nM]	solubility [3] [µM]	IC50 [4] [nM]	IC50 [6] [nM]	SMILES	also measured
–	322	–	422	1040	NC(=O)c1cnc(-c2ccc(C3(N)CCC3)cc2)c(-c2ccccc2)c1	inhibition [12]: Active; inhibition [13]: Active; inhibition [14]: Active; inhibition [15]: Active; inhibition [16]: Active; inhibition [17]: Active; growth inhibition (GI) [18]: Dose-dependent effect; bioavailability [7]: 48%; CLH [8]: 3 µL/min; inhibition [19]: Active; inhibition [20]: Active; inhibition [21]: Active; growth inhibition (GI) [22]: Active; CLH [9]: 4 µL/min; clearance ([10]; whole blood): 21 mL/min/kg; inhibition [23]: Active; inhibition [24]: Active; fraction unbound [5]: 0.419; Vd [11]: 11.1 L/kg; inhibition [25]: Active
–	293	–	369	2140	NC1(c2ccc(-c3c(-c4ccccc4)ccc4ncnn34)cc2)CCC1	–
3.6	250	290 (≈ 102 µg/mL)	557	243	NC1(c2ccc(-c3nc4ccccc4cc3-c3ccccc3)cc2)CCC1	bioavailability [7]: 0%; CLH [9]: 148 µL/min; clearance ([10]; in vivo): 26 mL/min/kg; fraction unbound [5]: 0.011; Vd [11]: 3.1 L/kg
–	216	–	391	528	NC1(c2ccc(-c3nn4ccnc4cc3-c3ccccc3)cc2)CCC1	bioavailability [7]: 0%; CLH [8]: 8 µL/min; CLH [9]: 274 µL/min; clearance ([10]; in vivo): 57 mL/min/kg; fraction unbound [5]: 0.123; Vd [11]: 2.3 L/kg
–	179	–	535	301	NC1(c2ccc(-c3ncc4ccccc4c3-c3ccccc3)cc2)CCC1	–
–	151	–	205	199	NC1(c2ccc(-c3nn4ccccc4c3-c3ccccc3)cc2)CCC1	bioavailability [7]: 0%; clearance ([10]; whole blood): 171 mL/min/kg; Vd [11]: 8 L/kg
2.8	124	1900 (≈ 645 µg/mL)	182	387	NC1(c2ccc(-c3nc4ccccn4c3-c3ccccc3)cc2)CCC1	bioavailability [7]: 36%; CLH [8]: 18 µL/min; CLH [9]: 291 µL/min; clearance ([10]; whole blood): 41 mL/min/kg; fraction unbound [5]: 0.068; Vd [11]: 10.3 L/kg
1.7	104	2000 (≈ 703 µg/mL)	167	465	NC1(c2ccc(-c3ncc4cccnc4c3-c3ccccc3)cc2)CCC1	–
2.2	98	1400 (≈ 492 µg/mL)	54	193	NC1(c2ccc(-c3ncc4ccncc4c3-c3ccccc3)cc2)CCC1	fraction unbound [5]: 0.105
2	92	110 (≈ 42.1 µg/mL)	82	348	NC(=O)c1ccn2c(-c3ccccc3)c(-c3ccc(C4(N)CCC4)cc3)nc2c1	–
–	47	–	89	188	NC1(c2ccc(-c3ncc4ncccc4c3-c3ccccc3)cc2)CCC1	–
2.2	37	2200 (≈ 773 µg/mL)	48	117	NC1(c2ccc(-c3ncc4cnccc4c3-c3ccccc3)cc2)CCC1	CLH [8]: 300 µL/min; clearance ([10]; whole blood): 40 mL/min/kg; fraction unbound [5]: 0.13; Vd [11]: 0.3 L/kg
